According to patent publication US20250179051A1, “PYRIMIDINLY-OXY-QUINOLINE BASED HERBICIDAL COMPOUNDS” (SYNGENTA CROP PROTECTION AG, priority 2022, published 2025):

Experiments:
Format in all cases: in vivo
Details in all cases: 250 g/ha, evaluated after 13 days, five-point scale
[1] = system: Amaranthus palmeri (AMAPA); test: Post-emergence herbicide glasshouse test
Method: (§1) Seeds of a variety of test species are sown in standard soil in pots Amaranthus retoflexus (AMARE), Amaranthus palmeri (AMAPA), Echinochloa crus-galli (ECHCG), Ipomoea hederacea (IPOHE), Setaria faberi (SETFA). After cultivation for one day (pre-emergence) or after 8 days cultivation (post-emergence) under controlled conditions in a glasshouse (at 24/16° C., day/night; 14 hours light; 65% humidity), the plants are sprayed with an aqueous spray solution derived from the formulation of the technical active ingredient in acetone/water (50:50) solution containing 0.5% Tween 20 (polyoxyethelyene sorbitan monolaurate, CAS RN 9005-64-5). Compounds are applied at 250 g/ha unless otherwise stated. The test plants are then grown in a glasshouse under controlled conditions in a glasshouse (at 24/16° C., day/night; 14 hours light; 65% humidity) and watered twice daily. After 13 days for pre and post-emergence, the test is evaluated for the percentage damage caused to the plant. The biological activities are shown in the following table on a five-point scale (5=81-100%; 4=61-80%; 3=41-60%; 2=21-40%; 1=0-20%).

[2] = system: Amaranthus retoflexus (AMARE); test: Post-emergence herbicide glasshouse test
Method: as §1

[3] = system: Echinochloa crus-galli (ECHCG); test: Post-emergence herbicide glasshouse test
Method: as §1

[4] = system: Ipomoea hederacea (IPOHE); test: Post-emergence herbicide glasshouse test
Method: as §1

Setaria faberi (SETFA) [5] = test: Post-emergence herbicide glasshouse test
Method: as §1

[6] = system: Amaranthus palmeri (AMAPA); test: Pre-emergence herbicide glasshouse test
Method: as §1

[7] = system: Amaranthus retoflexus (AMARE); test: Pre-emergence herbicide glasshouse test
Method: as §1

[8] = system: Echinochloa crus-galli (ECHCG); test: Pre-emergence herbicide glasshouse test
Method: as §1

[9] = system: Ipomoea hederacea (IPOHE); test: Pre-emergence herbicide glasshouse test
Method: as §1

Setaria faberi (SETFA) [10] = test: Pre-emergence herbicide glasshouse test
Method: as §1

Structure (SMILES)	percentage damage caused to the plant, AMAPA [1]	percentage damage caused to the plant, AMARE [2]	percentage damage caused to the plant, ECHCG [3]	percentage damage caused to the plant, IPOHE [4]	percentage damage caused to the plant, SETFA (Setaria faberi (SETFA) [5])	percentage damage caused to the plant, AMAPA [6]	percentage damage caused to the plant, AMARE [7]	percentage damage caused to the plant, ECHCG [8]	percentage damage caused to the plant, IPOHE [9]	percentage damage caused to the plant, SETFA (Setaria faberi (SETFA) [10])
CO/N=C/CCc1nc(C(F)(F)F)nc2cccc(Oc3ncc(Cl)cn3)c12 [Compound 1.025, (E)-3-[5-(5-chloropyrimidin-2-yl)oxy-2-(trifluoromethyl)quinazolin-4-yl]-N-methoxy-propan-1-imine]	4 (4=61-80%)	5 (5=81-100%)	5 (5=81-100%)	4 (4=61-80%)	5 (5=81-100%)	5 (5=81-100%)	5 (5=81-100%)	5 (5=81-100%)	4 (4=61-80%)	5 (5=81-100%)
O=C(c1ccc(Br)cn1)c1nc(C(F)(F)F)nc2cccc(Oc3ncc(Cl)cn3)c12 [Compound 1.026]	2 (2=21-40%)	1 (1=0-20%)	1 (1=0-20%)	1 (1=0-20%)	1 (1=0-20%)	4 (4=61-80%)	4 (4=61-80%)	1 (1=0-20%)	1 (1=0-20%)	1 (1=0-20%)
O=C(c1ccc(F)cn1)c1nc(C(F)(F)F)nc2cccc(Oc3ncc(Cl)cn3)c12 [Compound 1.027]	1 (1=0-20%)	2 (2=21-40%)	1 (1=0-20%)	1 (1=0-20%)	1 (1=0-20%)	2 (2=21-40%)	2 (2=21-40%)	1 (1=0-20%)	1 (1=0-20%)	1 (1=0-20%)
CC(=O)c1nc(C(F)(F)F)nc2cccc(Oc3ncc(Cl)cn3)c12 [Compound 1.028, 1-[5-(5-chloropyrimidin-2-yl)oxy-2-(trifluoromethyl)quinazolin-4-yl]ethanone]	4 (4=61-80%)	4 (4=61-80%)	1 (1=0-20%)	3 (3=41-60%)	2 (2=21-40%)	5 (5=81-100%)	5 (5=81-100%)	2 (2=21-40%)	1 (1=0-20%)	3 (3=41-60%)
O=C(c1ccccn1)c1nc(C(F)(F)F)nc2cccc(Oc3ncc(Cl)cn3)c12 [Compound 1.029, [5-(5-chloropyrimidin-2-yl)oxy-2-(trifluoromethyl)quinazolin-4-yl]-(2-pyridyl) methanone]	1 (1=0-20%)	1 (1=0-20%)	1 (1=0-20%)	1 (1=0-20%)	1 (1=0-20%)	1 (1=0-20%)	1 (1=0-20%)	1 (1=0-20%)	1 (1=0-20%)	1 (1=0-20%)
O=C(c1cccnc1)c1nc(C(F)(F)F)nc2cccc(Oc3ncc(Cl)cn3)c12 [Compound 1.030]	5 (5=81-100%)	5 (5=81-100%)	2 (2=21-40%)	2 (2=21-40%)	2 (2=21-40%)	5 (5=81-100%)	5 (5=81-100%)	4 (4=61-80%)	1 (1=0-20%)	4 (4=61-80%)
